Source: ChEMBL document CHEMBL3885881, “DrugMatrix”

Species on record: Rattus norvegicus
Test: DrugMatrix - Regimen: Daily Repeat
Type: toxicity, organism-based, Sprague-Dawley
Parameters: regimen Daily Repeat, gender Male, age 6-8 weeks
Conditions: in vivo, po, route oral GAVAGE, vehicle 100 % WATER; for ABSOLUTE BASOPHIL / ABSOLUTE EOSINOPHIL / ABSOLUTE LYMPHOCYTE / ABSOLUTE MONOCYTE / ABSOLUTE SEGMENTED NEUTROPHIL / BASOPHIL / EOSINOPHIL / ERYTHROCYTE COUNT / HEMATOCRIT / HEMOGLOBIN / LEUKOCYTE COUNT / LYMPHOCYTE / MEAN CORPUSCULAR HEMOGLOBIN / MEAN CORPUSCULAR HEMOGLOBIN CONCENTRATION / MEAN CORPUSCULAR VOLUME / MONOCYTE / NEUTROPHIL / NUCLEATED RED BLOOD CELLS / PLATELET COUNT: tissue Blood; for ALANINE AMINOTRANSFERASE / ALBUMIN / ALKALINE PHOSPHATASE / ASPARTATE AMINOTRANSFERASE / BLOOD UREA NITROGEN / CARBON DIOXIDE / CHLORIDE / CHOLESTEROL / CREATINE PHOSPHOKINASE / CREATININE / GLUCOSE / LACTATE DEHYDROGENASE / LIPASE / PHOSPHORUS / POTASSIUM / SODIUM / TOTAL BILIRUBIN / TOTAL PROTEIN / URIC ACID: tissue Plasma
[1] = 200 mg/kg, 120 h, dose level Low, time 5 day
[2] = 2000 mg/kg, 72 h, dose level High, time 3 day
[3] = 2000 mg/kg, 120 h, dose level High, time 5 day

For `CC(O)CO` (centres undefined) [PROPYLENE GLYCOL], the “ABSOLUTE BASOPHIL” value [1] was 0 CELLS/uL, the “ABSOLUTE EOSINOPHIL” value [1] was 0 CELLS/uL and the “ABSOLUTE LYMPHOCYTE” value [1] was 15454 CELLS/uL. For the same compound, the “ABSOLUTE MONOCYTE” value [1] was 284.33 CELLS/uL, the “ABSOLUTE SEGMENTED NEUTROPHIL” value [1] was 1261.67 CELLS/uL and the BASOPHIL [1] was 0%. The EOSINOPHIL [1] was 0%, the “ERYTHROCYTE COUNT” value [1] was 5.7 x10E6/uL and the HEMATOCRIT [1] was 35.5%. For the same compound, the HEMOGLOBIN [1] was 14.1 G/DL, the “LEUKOCYTE COUNT” value [1] was 17 x10E3/uL and the LYMPHOCYTE [1] was 91%. For the same compound, the “MEAN CORPUSCULAR HEMOGLOBIN” value [1] was 24.83 pg, the “MEAN CORPUSCULAR HEMOGLOBIN CONCENTRATION” value [1] was 39.73 G/DL and the “MEAN CORPUSCULAR VOLUME” value [1] was 62.37 fL. The MONOCYTE [1] was 1.67%, the NEUTROPHIL [1] was 7.33% and the “NUCLEATED RED BLOOD CELLS” value [1] was 0 /100WBC. For the same compound, the “PLATELET COUNT” value [1] was 1288 x10E3/uL, the “ALANINE AMINOTRANSFERASE” value [1] was 49.33 u/L and the ALBUMIN [1] was 4.37 G/DL. The “ALKALINE PHOSPHATASE” value [1] was 314.33 u/L, the “ASPARTATE AMINOTRANSFERASE” value [1] was 76.33 u/L and the “BLOOD UREA NITROGEN” value [1] was 18 mg/dL. The “CARBON DIOXIDE” value [1] was 25.33 mmol/L, the CHLORIDE [1] was 101 MEQ/L and the CHOLESTEROL [1] was 73 mg/dL. For the same compound, the “CREATINE PHOSPHOKINASE” value [1] was 227.67 u/L, the CREATININE [1] was 0.16 mg/dL and the GLUCOSE [1] was 165.67 mg/dL. For the same compound, the “LACTATE DEHYDROGENASE” value [1] was 181.67 u/L, the LIPASE [1] was 8.33 u/L and the PHOSPHORUS [1] was 12.87 mg/dL. The POTASSIUM [1] was 6.99 MEQ/L, the SODIUM [1] was 143.7 MEQ/L and the “TOTAL BILIRUBIN” value [1] was 0.23 mg/dL. For the same compound, the “TOTAL PROTEIN” value [1] was 6.03 G/DL, the “URIC ACID” value [1] was 2.13 mg/dL and the “ABSOLUTE BASOPHIL” value [2] was 0 CELLS/uL. For the same compound, the “ABSOLUTE EOSINOPHIL” value [2] was 0 CELLS/uL, the “ABSOLUTE LYMPHOCYTE” value [2] was 11801.33 CELLS/uL and the “ABSOLUTE MONOCYTE” value [2] was 112 CELLS/uL. The “ABSOLUTE SEGMENTED NEUTROPHIL” value [2] was 1053.33 CELLS/uL, the BASOPHIL [2] was 0% and the EOSINOPHIL [2] was 0%. The “ERYTHROCYTE COUNT” value [2] was 5.54 x10E6/uL, the HEMATOCRIT [2] was 34.73% and the HEMOGLOBIN [2] was 13.73 G/DL. The “LEUKOCYTE COUNT” value [2] was 12.97 x10E3/uL, the LYMPHOCYTE [2] was 90.33% and the “MEAN CORPUSCULAR HEMOGLOBIN” value [2] was 24.8 pg. For the same compound, the “MEAN CORPUSCULAR HEMOGLOBIN CONCENTRATION” value [2] was 39.53 G/DL, the “MEAN CORPUSCULAR VOLUME” value [2] was 62.77 fL and the MONOCYTE [2] was 1%. For the same compound, the NEUTROPHIL [2] was 8.67%, the “NUCLEATED RED BLOOD CELLS” value [2] was 0 /100WBC and the “PLATELET COUNT” value [2] was 1166 x10E3/uL. For the same compound, the “ALANINE AMINOTRANSFERASE” value [2] was 53.33 u/L, the ALBUMIN [2] was 4.3 G/DL and the “ALKALINE PHOSPHATASE” value [2] was 390 u/L. For the same compound, the “ASPARTATE AMINOTRANSFERASE” value [2] was 82 u/L, the “BLOOD UREA NITROGEN” value [2] was 14.33 mg/dL and the “CARBON DIOXIDE” value [2] was 23 mmol/L. The CHLORIDE [2] was 100.67 MEQ/L, the CHOLESTEROL [2] was 65.33 mg/dL and the “CREATINE PHOSPHOKINASE” value [2] was 195 u/L. For the same compound, the CREATININE [2] was 0.18 mg/dL, the GLUCOSE [2] was 154.67 mg/dL and the “LACTATE DEHYDROGENASE” value [2] was 119.33 u/L. For the same compound, the LIPASE [2] was 10.67 u/L, the PHOSPHORUS [2] was 12.87 mg/dL and the POTASSIUM [2] was 6.42 MEQ/L. The SODIUM [2] was 143.1 MEQ/L, the “TOTAL BILIRUBIN” value [2] was 0.17 mg/dL and the “TOTAL PROTEIN” value [2] was 5.93 G/DL. The “URIC ACID” value [2] was 1.53 mg/dL, the “ABSOLUTE BASOPHIL” value [3] was 0 CELLS/uL and the “ABSOLUTE EOSINOPHIL” value [3] was 46 CELLS/uL. The “ABSOLUTE LYMPHOCYTE” value [3] was 14960.67 CELLS/uL, the “ABSOLUTE MONOCYTE” value [3] was 42.67 CELLS/uL and the “ABSOLUTE SEGMENTED NEUTROPHIL” value [3] was 1217.33 CELLS/uL. For the same compound, the BASOPHIL [3] was 0%, the EOSINOPHIL [3] was 0.33% and the “ERYTHROCYTE COUNT” value [3] was 5.65 x10E6/uL. For the same compound, the HEMATOCRIT [3] was 35.27%, the HEMOGLOBIN [3] was 14 G/DL and the “LEUKOCYTE COUNT” value [3] was 16.27 x10E3/uL. The LYMPHOCYTE [3] was 91.67%, the “MEAN CORPUSCULAR HEMOGLOBIN” value [3] was 24.83 pg and the “MEAN CORPUSCULAR HEMOGLOBIN CONCENTRATION” value [3] was 39.7 G/DL. The “MEAN CORPUSCULAR VOLUME” value [3] was 62.5 fL, the MONOCYTE [3] was 0.33% and the NEUTROPHIL [3] was 7.67%. For the same compound, the “NUCLEATED RED BLOOD CELLS” value [3] was 0 /100WBC, the “PLATELET COUNT” value [3] was 1315.33 x10E3/uL and the “ALANINE AMINOTRANSFERASE” value [3] was 52 u/L. For the same compound, the ALBUMIN [3] was 4.3 G/DL, the “ALKALINE PHOSPHATASE” value [3] was 327.33 u/L and the “ASPARTATE AMINOTRANSFERASE” value [3] was 76.67 u/L. For the same compound, the “BLOOD UREA NITROGEN” value [3] was 17.33 mg/dL, the “CARBON DIOXIDE” value [3] was 27 mmol/L and the CHLORIDE [3] was 102 MEQ/L. The CHOLESTEROL [3] was 69 mg/dL, the “CREATINE PHOSPHOKINASE” value [3] was 218 u/L and the CREATININE [3] was 0.16 mg/dL. For the same compound, the GLUCOSE [3] was 159.33 mg/dL, the “LACTATE DEHYDROGENASE” value [3] was 121 u/L and the LIPASE [3] was 8.67 u/L. For the same compound, the PHOSPHORUS [3] was 12.4 mg/dL, the POTASSIUM [3] was 5.9 MEQ/L and the SODIUM [3] was 144.67 MEQ/L. For the same compound, the “TOTAL BILIRUBIN” value [3] was 0.17 mg/dL, the “TOTAL PROTEIN” value [3] was 6.07 G/DL and the “URIC ACID” value [3] was 1.43 mg/dL.
